Test results from US7728012B2, “Carboxamide compounds and their use as calpain inhibitors” (Abbott GmbH & Co. KG, priority 2006, dated 2010).

Tests used:
Format in all cases: biochemical
[1] = biological target: T1, recombinant human cathepsin S (Homo sapiens, UniProt P25774); assay: Cathepsin S kinetic fluorescence enzyme inhibition assay; details: selectivity ratio versus calpain I
T1 construct: purchased Calbiochem 219343; host or cells: E. coli
Method in brief: (§1)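 cat B 0.25 nM + Z-Phe-Arg-AMC 100 μM; cat L 1 nM + Z-Phe-Arg-AMC 2 μM; cat S 0.5 nM (E. coli-expressed) + Z-Val-Val-Arg-AMC 20 μM. 50 mM MES pH 6.0, 2.5 mM L-Cys, RT. Ex 390/em 460, kinetic; Ki app = Cheng-Prusoff from IC50, mean of 2–4 curves.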

[2] = biological target: T2, cathepsin B isolated from human liver (Homo sapiens, UniProt P07858); assay: Cathepsin B kinetic fluorescence enzyme inhibition assay; details: selectivity ratio versus calpain I
T2 construct: cathepsin B—isolated from human liver; purchased Calbiochem 219362; host or cells: human liver (tissue isolate)
Method in brief: as §1

[3] = biological target: T3, cathepsin L isolated from human liver (Homo sapiens, UniProt P07711); assay: Cathepsin L kinetic fluorescence enzyme inhibition assay; details: selectivity ratio versus calpain I
T3 construct: cathepsin L—isolated from human liver; purchased Calbiochem 219402; host or cells: human liver (tissue isolate)
Method in brief: as §1

[4] = biological target: T4, cathepsin K activated from recombinant human procathepsin K (Homo sapiens, UniProt P43235); assay: Cathepsin K kinetic fluorescence enzyme inhibition assay; details: selectivity ratio versus calpain I
T4 construct: purchased Calbiochem 342001; host or cells: E. coli
T4 sequence (P43235 115-329): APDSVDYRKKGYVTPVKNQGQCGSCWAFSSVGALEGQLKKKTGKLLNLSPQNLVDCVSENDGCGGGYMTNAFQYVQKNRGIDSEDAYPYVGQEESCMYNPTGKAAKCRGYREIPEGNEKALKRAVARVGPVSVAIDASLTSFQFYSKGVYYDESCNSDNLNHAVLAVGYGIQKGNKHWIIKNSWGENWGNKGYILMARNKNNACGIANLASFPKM

[5] = biological target: T5, calpain-I isolated from human erythrocytes (Homo sapiens, UniProt P07384); assay: Calpain I kinetic fluorescence enzyme inhibition assay; details: apparent Ki from IC50 by Cheng-Prussoff; average of 2 to 4 dose-effect plots
T5 construct: calpain-I—isolated from human erythrocytes; purchased Calbiochem 208713; host or cells: human erythrocytes (tissue isolate)
T5 sequence (P07384 1-714): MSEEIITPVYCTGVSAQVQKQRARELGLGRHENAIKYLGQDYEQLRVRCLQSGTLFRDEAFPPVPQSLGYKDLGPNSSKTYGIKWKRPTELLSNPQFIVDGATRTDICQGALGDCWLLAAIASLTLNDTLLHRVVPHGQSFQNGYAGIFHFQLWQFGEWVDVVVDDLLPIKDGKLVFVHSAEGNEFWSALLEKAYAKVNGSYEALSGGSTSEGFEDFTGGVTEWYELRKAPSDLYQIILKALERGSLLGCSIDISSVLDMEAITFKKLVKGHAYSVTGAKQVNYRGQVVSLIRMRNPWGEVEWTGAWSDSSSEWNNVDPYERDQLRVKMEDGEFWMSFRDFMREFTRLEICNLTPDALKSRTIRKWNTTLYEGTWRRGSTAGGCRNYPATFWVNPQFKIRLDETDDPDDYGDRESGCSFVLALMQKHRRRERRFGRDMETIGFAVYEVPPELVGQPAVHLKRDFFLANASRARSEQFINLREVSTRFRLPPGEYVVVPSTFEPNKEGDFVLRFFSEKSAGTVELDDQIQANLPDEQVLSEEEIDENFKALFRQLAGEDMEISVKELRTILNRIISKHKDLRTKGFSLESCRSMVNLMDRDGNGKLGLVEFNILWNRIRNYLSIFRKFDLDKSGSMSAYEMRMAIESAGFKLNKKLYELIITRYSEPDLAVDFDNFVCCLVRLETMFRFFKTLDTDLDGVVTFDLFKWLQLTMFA
T5 sequence (P04632 1-268 partner): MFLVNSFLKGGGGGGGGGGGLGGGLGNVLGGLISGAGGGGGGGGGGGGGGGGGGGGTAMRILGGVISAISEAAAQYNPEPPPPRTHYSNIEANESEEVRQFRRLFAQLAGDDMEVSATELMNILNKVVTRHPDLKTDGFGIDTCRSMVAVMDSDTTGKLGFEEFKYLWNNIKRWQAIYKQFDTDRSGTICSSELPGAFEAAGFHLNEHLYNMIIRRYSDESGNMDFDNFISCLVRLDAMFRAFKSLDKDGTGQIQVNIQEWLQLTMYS

T3 sequence (P07711 114-333): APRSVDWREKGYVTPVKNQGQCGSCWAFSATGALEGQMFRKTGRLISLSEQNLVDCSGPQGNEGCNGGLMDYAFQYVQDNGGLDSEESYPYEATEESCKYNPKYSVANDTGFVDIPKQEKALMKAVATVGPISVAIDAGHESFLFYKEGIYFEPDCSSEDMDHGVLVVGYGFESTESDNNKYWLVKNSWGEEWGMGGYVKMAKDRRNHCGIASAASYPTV
T1 sequence (P25774 115-331): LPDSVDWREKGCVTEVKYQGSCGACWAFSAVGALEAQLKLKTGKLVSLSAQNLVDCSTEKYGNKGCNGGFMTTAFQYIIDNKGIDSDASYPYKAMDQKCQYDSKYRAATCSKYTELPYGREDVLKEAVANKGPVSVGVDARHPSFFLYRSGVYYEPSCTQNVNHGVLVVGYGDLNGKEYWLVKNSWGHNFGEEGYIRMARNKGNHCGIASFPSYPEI

| SMILES | Sel cat. S (Ki(cathepsin S)/Ki(calpain) ratio) [1] | Sel cat. B (Ki(cathepsin B)/Ki(calpain) ratio) [2] | Sel cat. L (Ki(cathepsin L)/Ki(calpain) ratio) [3] | Sel cat. K (Ki(cathepsin K)/Ki(calpain) ratio) [4] | Ki [5] [nM] |
| --- | --- | --- | --- | --- | --- |
| NC(=O)C(=O)C(Cc1ccc(F)cc1)NC(=O)c1cccnc1-n1ccc(-c2ccccc2OC(F)(F)F)n1 (centres unmarked) [Example 152, N-{3-Amino-1-[(4-fluorophenyl)methyl]-2,3-dioxopropyl}-2-(3-{2-[(trifluoromethyl)oxy]phenyl}-1H-pyrazol-1-yl)pyridine-3-carboxamide] | ++ (Ki(cathepsin S)/Ki(calpain) ratio of ≧100) | ++ (Ki(cathepsin B)/Ki(calpain) ratio of ≧30) | ++ (Ki(cathepsin L)/Ki(calpain) ratio of ≧50) | ++ (Ki(cathepsin K)/Ki(calpain) ratio of ≧30) | ≤ 40 |
| NC(=O)C(=O)C(Cc1ccccc1)NC(=O)c1cccnc1-n1ccc(-c2cccc3c2OC(F)(F)O3)n1 (centres unmarked) [Example 119, N-[3-Amino-2,3-dioxo-1-(phenylmethyl)propyl]-2-[3-(2,2-difluoro-1,3-benzodioxol-4-yl)-1H-pyrazol-1-yl]pyridine-3-carboxamide] | ++ (Ki(cathepsin S)/Ki(calpain) ratio of ≧100) | ++ (Ki(cathepsin B)/Ki(calpain) ratio of ≧30) | ++ (Ki(cathepsin L)/Ki(calpain) ratio of ≧50) | ++ (Ki(cathepsin K)/Ki(calpain) ratio of ≧30) | ≤ 40 |
| NC(=O)C(=O)C(Cc1ccc(Cl)cc1)NC(=O)c1cccnc1-n1ccc(-c2ccc(F)cc2)n1 (centres unmarked) [Example 67, N-[3-Amino-1-(4-chlorobenzyl)-2,3-dioxopropyl]-2-[3-(4-fluorophenyl)-1H-pyrazol-1-yl]nicotinamide] | ++ (Ki(cathepsin S)/Ki(calpain) ratio of ≧100) | + (10≦Ki(cathepsin B)/Ki(calpain)<30) | ++ (Ki(cathepsin L)/Ki(calpain) ratio of ≧50) | + (10≦Ki(cathepsin K)/Ki(calpain)<30) | 40 to 100 |
| COc1ccc(-c2ccn(-c3ncccc3C(=O)NC(Cc3ccccc3)C(=O)C(N)=O)n2)c(OC)c1 (centres unmarked) [Example 117, N-[3-Amino-2,3-dioxo-1-(phenylmethyl)propyl]-2-{3-[2,4-bis(methyloxy)phenyl]-1H-pyrazol-1-yl}pyridine-3-carboxamide] | ++ (Ki(cathepsin S)/Ki(calpain) ratio of ≧100) | ++ (Ki(cathepsin B)/Ki(calpain) ratio of ≧30) | ++ (Ki(cathepsin L)/Ki(calpain) ratio of ≧50) | ++ (Ki(cathepsin K)/Ki(calpain) ratio of ≧30) | ≤ 40 |
| COc1ccc(CC(NC(=O)c2cccnc2-n2ccc(-c3ccc(F)cc3)n2)C(=O)C(N)=O)cc1 (centres unmarked) [Example 81, N-[3-Amino-1-(4-methoxybenzyl)-2,3-dioxopropyl]-2-[3-(4-fluorophenyl)-1H-pyrazol-1-yl]nicotinamide] | ++ (Ki(cathepsin S)/Ki(calpain) ratio of ≧100) | + (10≦Ki(cathepsin B)/Ki(calpain)<30) | ++ (Ki(cathepsin L)/Ki(calpain) ratio of ≧50) | + (10≦Ki(cathepsin K)/Ki(calpain)<30) | ≤ 40 |
| NC(=O)C(=O)C(Cc1ccccc1)NC(=O)c1cccnc1-n1ccc(-c2ccc(F)cc2F)n1 (centres unmarked) [Example 94, N-[3-Amino-2,3-dioxo-1-(phenylmethyl)propyl]-2-[3-(2,4-difluorophenyl)-1H-pyrazol-1-yl]pyridine-3-carboxamide] | ++ (Ki(cathepsin S)/Ki(calpain) ratio of ≧100) | ++ (Ki(cathepsin B)/Ki(calpain) ratio of ≧30) | ++ (Ki(cathepsin L)/Ki(calpain) ratio of ≧50) | + (10≦Ki(cathepsin K)/Ki(calpain)<30) | 40 to 100 |
| COc1ccc(-c2ccn(-c3ncccc3C(=O)NC(Cc3ccccc3)C(=O)C(N)=O)n2)cc1 (centres unmarked) [Example 48, N-(3-Amino-1-benzyl-2,3-dioxopropyl)-2-[3-(4-methoxyphenyl)-1H-pyrazol-1-yl]nicotinamide] | ++ (Ki(cathepsin S)/Ki(calpain) ratio of ≧100) | + (10≦Ki(cathepsin B)/Ki(calpain)<30) | ++ (Ki(cathepsin L)/Ki(calpain) ratio of ≧50) | + (10≦Ki(cathepsin K)/Ki(calpain)<30) | 40 to 100 |
| NC(=O)C(=O)[C@H](Cc1ccccc1)NC(=O)c1cccnc1-n1ccc(-c2ccccc2)n1 [Example 107, N-[(1S)-3-Amino-2,3-dioxo-1-(phenylmethyl)propyl]-2-(3-phenyl-1H-pyrazol-1-yl)pyridine-3-carboxamide] | ++ (Ki(cathepsin S)/Ki(calpain) ratio of ≧100) | + (10≦Ki(cathepsin B)/Ki(calpain)<30) | ++ (Ki(cathepsin L)/Ki(calpain) ratio of ≧50) | + (10≦Ki(cathepsin K)/Ki(calpain)<30) | ≤ 40 |
| COc1ccc(CC(NC(=O)c2cccnc2-n2ccc(-c3ccccc3F)n2)C(=O)C(N)=O)cc1 (centres unmarked) [Example 92, N-(3-Amino-1-{[4-(methyloxy)phenyl]methyl}-2,3-dioxopropyl)-2-[3-(2-fluorophenyl)-1H-pyrazol-1-yl]pyridine-3-carboxamide] | ++ (Ki(cathepsin S)/Ki(calpain) ratio of ≧100) | ++ (Ki(cathepsin B)/Ki(calpain) ratio of ≧30) | ++ (Ki(cathepsin L)/Ki(calpain) ratio of ≧50) | + (10≦Ki(cathepsin K)/Ki(calpain)<30) | 40 to 100 |
| NC(=O)C(=O)C(Cc1ccccc1)NC(=O)c1cccnc1-n1ccc(-c2ccccc2F)n1 (centres unmarked) [Example 76, N-(3-Amino-1-benzyl-2,3-dioxopropyl)-2-[3-(2-fluorophenyl)-1H-pyrazol-1-yl]nicotinamide] | ++ (Ki(cathepsin S)/Ki(calpain) ratio of ≧100) | ++ (Ki(cathepsin B)/Ki(calpain) ratio of ≧30) | ++ (Ki(cathepsin L)/Ki(calpain) ratio of ≧50) | + (10≦Ki(cathepsin K)/Ki(calpain)<30) | ≤ 40 |
